Test results: patent US10918734B2 (Immunomedics, Inc., priority 2017, dated 2021)
Where two headings read alike, the source gives them in different places.

Experiments:
[1] = tested on: poly-ADP-ribose polymerase (PARP); assay: Cleavage of PARP in tumor cells; assay type: cell-based, human; details: BxPC-3 and Calu-3
Excerpt: (§1) SN-38 is known to activate several signaling pathways in cells, leading to apoptosis (e.g., Cusack et al., 2001, Cancer Res 61:3535-40; Liu et al. 2009, Cancer Lett 274:47-53; Lagadec et al., 2008, Br J Cancer 98:335-44). Our initial studies examined the expression of 2 proteins involved in early signaling events (p21^Waf1/Cip1 and p53) and 1 late apoptotic event [cleavage of poly-ADP-ribose polymerase (PARP)] in vitro (not shown).
(§2) In addition, p53 expression in cells exposed to the ADC was higher in both cell lines compared to SN-38 (not shown). […] In terms of later apoptotic events, cleavage of PARP was evident in both cell lines when incubated with either SN-38 or the conjugate (not shown). […] The higher degree of cleavage with free SN-38 over the ADC was consistent with the cytotoxicity findings.

p53 = p53 expression in tumor cells; assay type: cell-based, human; details: BxPC-3 and Calu-3
Excerpt: as §1, §2

[2] = tested on: human SCLC tumors (DMS 53); assay type: in vivo, C.B.-17 SCID mice
Procedure: Female C.B.-17 SCID mice were injected s.c. with a tumor suspension made from of DMS 53 stock tumors (20% w/v) plus cells harvested from tissue culture (5×10^6 cells per mouse) mixed 1:1 with matrigel. […] All were administered twice weekly for 4 weeks. Two groups received only chemotherapy of either cisplatinum (5 mg/kg i.p.) or carboplatin (50 mg/kg i.p.) weekly for 4 weeks. […] A final untreated control group of mice received saline (100 μL i.p. twice weekly×4 wks). Tumors were measured and mice weighed twice weekly.

MDA-MB-231 tumors = assay: MDA-MB-231 parental tumor therapy; assay type: in vivo, mice
Procedure: (§3) Rad51 and DNA-breaks (g-H2A.X) were determined by Western blot. […] Tumors were measured and mice weighed twice weekly. Study survival endpoint was tumor progression to >1.0 cm^3.

Rad51 [3] = assay: Rad51 expression in tumors taken from treated mice; assay type: in vivo; details: parental, C13 and C39 tumors
[4] = tested on: SK-MES-1 human squamous cell lung tumors; assay: SK-MES-1 xenograft therapy; set-up: species or system nude mice; details: mouse, in vivo
[5] = tested on: SK-MES-1 squamous cell lung carcinoma; assay: SK-MES-1 antitumor effect (FIG. 18); assay type: in vivo
C39 tumors = assay: MDA-MB-231 Trop-2 transfectant C39 tumor therapy; assay type: in vivo, mice; details: for median survival time (MST): IMMU-132 0.5 mg twice wkly × 4, irinotecan 40 mg/kg q2dx5
Procedure: as §3

[6] = plasma esterase; cited from earlier work
C13 tumors = assay: MDA-MB-231 Trop-2 transfectant C13 tumor therapy; assay type: in vivo, mice; details: for median survival time (MST): IMMU-132 0.5 mg twice wkly × 4, irinotecan 40 mg/kg q2dx5
Procedure: as §3

[7] = human, in vivo
[8] = tested on: diverse metastatic cancers; assay: Phase I/II clinical trial of IMMU-132 (Example 8): response and TTP; assay type: in vivo, human
HCC1806 TNBC = HCC1806 TNBC antitumor effect (FIG. 17); assay type: in vivo
advanced GI cancers = assay: Phase I/II trial of IMMU-132 in advanced GI cancers: best response by RECIST, TTP; assay type: in vivo, human
Procedure: Patients with metastatic cancers were enrolled after failing standard therapy, starting at a dose of 8.0 mg/kg given on days 1 and 8 of a 3-week cycle.
Sixty patients with advanced GI cancers were enrolled in a Phase I/II trial.

Rad51 [9] = assay: Rad51 levels by Western blot in cells exposed to IMMU-132; assay type: cell-based, human; details: for increase in Rad51 level: MDA-MB-231, 24-h exposure
Procedure: as §3

Capan-1 tumors = assay: Capan-1 xenograft therapy; assay type: in vivo, nude mice; details: day 140; 0.2 mg/kg SN-38 twice weekly x 4 weeks
p21^Waf1/Cip1 = assay: p21Waf1/Cip1 expression in tumor cells; assay type: cell-based, human
Excerpt: as §1

Calu-3 tumors = assay: Calu-3 xenograft therapy; assay type: in vivo, nude mice; details: 0.4 mg/kg SN-38; tumor-free until day 147
[10] = mouse, in vivo
[11] = tested on: BxPC3 human pancreatic carcinoma; details: FIG. 2
[12] = Tolerability in Cynomolgus monkeys; assay type: in vivo, Cynomolgus monkeys (Macaca fascicularis)
[13] = human, in vivo; remark: listed apart in the source
[14] = Tolerability in Swiss-Webster mice; details: normal mice; 1,500 mg/kg of the conjugate
[15] = day 73, IMMU-132 250 μg (alone twice weekly, in combination weekly)

CCc1c2c(nc3ccc(O)cc13)-c1cc3c(c(=O)n1C2)COC(=O)[C@]3(O)CC [SN-38, reference compound]
cleavage of PARP [1]: evident | exposure time at which upregulation of p53 was evident (p53): 48 h

N.N.O=C([O-])C1(C(=O)[O-])CCC1.[Pt+2] [carboplatin, reference compound]
mean tumor volume ([2]; day 41 (therapy day 14)): 0.602±0.224 cm^3

N.N.[Cl][Pt][Cl] [cisplatinum, reference compound]
mean tumor volume [2, 15]: 0.758±0.240 cm^3

CCc1c2c(nc3ccc(OC(=O)N4CCC(N5CCCCC5)CC4)cc13)-c1cc3c(c(=O)n1C2)COC(=O)[C@]3(O)CC [irinotecan, reference compound]
median survival time (MDA-MB-231 tumors; 40 mg/kg q2dx5): 26.5 days | Rad51 in tumors from treated mice (Rad51 [3]): up-regulation of Rad51 within 24 h | antitumor effect vs specific hRS7-SN-38 conjugate [4]: provided the same antitumor effects | antitumor effects [5]: significant antitumor effects | median survival time (MST) (C39 tumors): 28 days | conversion rate to SN-38 [6]: greater than 50% | median survival time (C13 tumors; 40 mg/kg q2dx5): 35 days | median survival time (MST) (C13 tumors): 35 days

IMMU-132
median survival time (MST) (MDA-MB-231 tumors; 0.5 mg twice wkly × 4, endpoint tumor >1.0 cm^3): 21 days | effect on tumor growth (MDA-MB-231 tumors; FIG. 19): no effect on tumor growth | effect on survival (MDA-MB-231 tumors; FIG. 22): no antitumor effect on survival | efficacy (MDA-MB-231 tumors; past studies, FIG. 16): neither IMMU-132 nor irinotecan demonstrated any efficacy | Rad51 in tumors from treated mice (Rad51 [3]): up-regulation of Rad51 within 24 h | Abdominal pain, Grade 3 [7]: 0 | Abdominal pain, Grade 4 [7]: 0 | Anemia, Grade 3 [7]: 2 (4%) | Anemia, Grade 4 [7]: 0 | Deep vein thrombosis, Grade 3 [7]: 1 (2%) | Deep vein thrombosis, Grade 4 [7]: 0 | Diarrhea, Grade 3 [7]: 4 (9%) | Diarrhea, Grade 4 [7]: 0 | Dysgeusia, Grade 3 [7]: 0 | Dysgeusia, Grade 4 [7]: 0 | Fatigue, Grade 3 [7]: 4 (9%) | Fatigue, Grade 4 [7]: 0 | Hypokalemia, Grade 3 [7]: 1 (2%) | Hypokalemia, Grade 4 [7]: 0 | Nausea, Grade 3 [7]: 0 | Nausea, Grade 4 [7]: 0 | Neutropenia, Grade 3 [7]: 11 (24%) | Neutropenia, Grade 4 [7]: 2 (4%) | Pyrexia, Grade 3 [7]: 0 | Pyrexia, Grade 4 [7]: 0 | Vomiting, Grade 3 [7]: 1 (2%) | Vomiting, Grade 4 [7]: 0 | WBC Decrease, Grade 3 [7]: 1 (2%) | WBC Decrease, Grade 4 [7]: 0 | neutropenia ≥G3 [7]: 28% | antitumor effects [5]: significant antitumor effects | CT-assessable PDC patients with SD ([8]; 8 of 13): 62% | patients with disease response ([8]; 48 patients (excluding PDC)): 79% | antitumor effects (HCC1806 TNBC): significant antitumor effects | effect on tumor growth (C39 tumors; FIG. 21): effective to inhibit tumor growth | median survival time (MST) (C39 tumors): > 70 days | gastric cancer patients with SD (advanced GI cancers; 3 with CT assessment): 3 | esophageal cancer patients with PR (advanced GI cancers; 8 with CT assessment): 1 | esophageal cancer patients with SD (advanced GI cancers; 8 with CT assessment): 4 | pancreatic cancer patients with SD as best response (advanced GI cancers; 15 treated (5 at 8, 7 at 10, 3 at 12 mg/kg)): 7 | CRC patients with SD as best response by RECIST (advanced GI cancers; 29 CRC patients): 14 | CRC patients with PR as best response by RECIST (advanced GI cancers; 29 CRC patients (9 at 10 mg/kg, 20 at 8 mg/kg)): 1 | extent of the PR (advanced GI cancers; CRC): ~65% | Rad51 up-regulation above untreated background (Rad51 [9]; C13 and C39, 24 h): ~2.5 fold | increase in Rad51 level (Rad51 [9]; 25 nM SN-38-equivalents): greater than 2 fold | increase in Rad51 level (Rad51 [9]; 100 nM): 4 fold | increase in Rad51 levels (Rad51 [9]; MDA-MB-231 cells, 24 h): > 2 fold | change in Rad51 (Rad51 [9]; SK-MES-1, HCC1806): Neither SK-MES-1 nor HCC1806 cells demonstrated any increases in Rad51 | effect on Rad51 levels (Rad51 [9]; SK-MES-1 or HCC1806): no effect | antitumor effect compared to saline control ([2]; 500, 250 or 100 μg i.p. twice weekly for 4 weeks): significant antitumor effect | mean tumor volume [2, 15]: 0.745±0.162 cm^3 | effect on tumor growth (C13 tumors; FIG. 20): effective to inhibit tumor growth | median survival time (MST) (C13 tumors): > 70 days

hA20-CL2A-SN-38 [reference compound]
mice tumor-free at end of study (Capan-1 tumors): 20% | antitumor effect vs specific hRS7-SN-38 conjugate [4]: provided the same antitumor effects

hRS7 IgG
exposure time at which upregulation of p53 was evident (p53): 48 h | effect on p21Waf1/Cip1 expression (p21^Waf1/Cip1): no appreciable effect

hRS7-CL2-SN-38
time within which all mice were cured (Calu-3 tumors): ≤ 28 days | mice tumor-free at end of study (Capan-1 tumors): 40%

hRS7-CL2A-SN-38
cleavage of PARP [1]: evident | exposure time at which upregulation of p53 was evident (p53): ≤ 24 h | increase in p21Waf1/Cip1 expression over free SN-38 (p21^Waf1/Cip1; Calu-3): more than 2 fold | AST level [10]: > 298 U/L | histology at termination [10]: no histologic evidence of tissue damage | glucose levels (slightly elevated) ([10]; 8 mg/kg): 273 to 320 mg/dL | mice with slightly elevated glucose levels ([10]; 8 mg/kg): 5 of 7 | mice tumor-free at end of study (Capan-1 tumors): 50% | therapeutic efficacy vs control treatments [11]: better therapeutic efficacy than control treatments | blood count data ([12]; 2×0.96 mg SN-38/kg, transient decreases): values did not fall below normal ranges | human equivalent dose of MTD (2 doses) ([12]; cynomolgus monkey, in vivo): 0.3-0.6 mg/kg SN-38

hRS7-SN-38
SN-38 released daily [13]: 50% | time within which the conjugate cleared from the serum [13]: ≤ 3 days | cumulative human equivalent dose tolerated by monkeys ([12]; cynomolgus monkey, in vivo): 22 mg/m^2 | dose tolerated by monkeys ([12]; only minor, reversible toxicities): 24 mg SN-38 equivalents/kg | reduction in target lesions at first CT assessment ([8]; person with CRC, starting dose 8 mg/kg): 37% | cumulative dose over 1 week without acute toxicity [14]: 24 mg/kg SN-38
